Laboratory results: the NIST ThermoML archive (doi:10.1021/acs.jced.9b00078)

Assay: xn = mol fraction of the nth substance listed
Conditions: Liquid, Other PVT measurement

CCCCCCCCCCCCCCCC [hexadecane] + O=C=O
mass density [kg/m3]
Conditions	303.2 K	313.2 K	333.2 K	353.2 K	373.2 K	393.2 K	413.2 K	433.2 K	453.2 K	473.2 K
10000 kPa, x2 = 0.2555	780.45	773.23	758.92	744.43	729.96	715.39	700.19	685.46	670.23	654.67
10000 kPa, x2 = 0.3703	–	778.18	759.26	746.79	731.25	715.75	698.68	681.51	664.54	647.28
20000 kPa, x2 = 0.2555	787.34	780.1	766.68	753	739.28	725.96	712.05	698.1	684	670.22
20000 kPa, x2 = 0.3703	793.48	785.88	771.19	756.53	742.07	727.42	712.39	697.06	681.26	665.86
30000 kPa, x2 = 0.2555	794.56	787.59	774.7	761.96	749.11	736.15	723.64	710.65	697.79	684.48
30000 kPa, x2 = 0.3703	801.32	793.73	780.08	766.24	752.26	738.82	725.13	711.36	697.06	683.13
30000 kPa, x2 = 0.7348	839.16	828.9	807.53	785.71	763.15	741.75	718.23	696.05	671.94	647.71
30000 kPa, x2 = 0.8645	872.71	857.83	827.32	793.96	758.29	725.26	688.46	649.67	613.21	578.59
40000 kPa, x2 = 0.2555	800.47	793.9	781.61	769.42	757.25	745.02	732.84	721.13	708.66	696.75
40000 kPa, x2 = 0.3703	807.74	800.81	787.53	774.17	761.32	748.53	735.68	723.06	709.8	697.04
40000 kPa, x2 = 0.7348	848.5	839.65	821.38	800.32	779.76	758.8	738	717.02	695.98	675.69
40000 kPa, x2 = 0.8645	885.49	870.69	840.65	812.52	785.33	757.98	729.63	702.92	673.61	644.14
50000 kPa, x2 = 0.2555	807.2	800.32	788.15	776.26	764.83	753.11	741.57	730.38	718.53	707.53
50000 kPa, x2 = 0.3703	814.58	807.06	794.36	782.12	769.45	756.96	744.66	732.8	720.85	708.83
50000 kPa, x2 = 0.7348	860.91	850.12	831.42	812.92	793.19	773.38	755.78	736.34	717.38	698.15
50000 kPa, x2 = 0.8645	900.22	885.44	859.09	833.73	810.58	783.06	759.09	735.07	709.83	685.57
